Experimental data: patent publication US12391683B2, “Therapeutic compounds and methods” (Actio Biosciences, Inc., priority 2022, dated 2025)

Target: T1, TRPC6 channels (Homo sapiens, UniProt Q9Y210)
T1 construct: expressed in transfected cells; host or cells: HEK293
T1 sequence (Q9Y210 1-931): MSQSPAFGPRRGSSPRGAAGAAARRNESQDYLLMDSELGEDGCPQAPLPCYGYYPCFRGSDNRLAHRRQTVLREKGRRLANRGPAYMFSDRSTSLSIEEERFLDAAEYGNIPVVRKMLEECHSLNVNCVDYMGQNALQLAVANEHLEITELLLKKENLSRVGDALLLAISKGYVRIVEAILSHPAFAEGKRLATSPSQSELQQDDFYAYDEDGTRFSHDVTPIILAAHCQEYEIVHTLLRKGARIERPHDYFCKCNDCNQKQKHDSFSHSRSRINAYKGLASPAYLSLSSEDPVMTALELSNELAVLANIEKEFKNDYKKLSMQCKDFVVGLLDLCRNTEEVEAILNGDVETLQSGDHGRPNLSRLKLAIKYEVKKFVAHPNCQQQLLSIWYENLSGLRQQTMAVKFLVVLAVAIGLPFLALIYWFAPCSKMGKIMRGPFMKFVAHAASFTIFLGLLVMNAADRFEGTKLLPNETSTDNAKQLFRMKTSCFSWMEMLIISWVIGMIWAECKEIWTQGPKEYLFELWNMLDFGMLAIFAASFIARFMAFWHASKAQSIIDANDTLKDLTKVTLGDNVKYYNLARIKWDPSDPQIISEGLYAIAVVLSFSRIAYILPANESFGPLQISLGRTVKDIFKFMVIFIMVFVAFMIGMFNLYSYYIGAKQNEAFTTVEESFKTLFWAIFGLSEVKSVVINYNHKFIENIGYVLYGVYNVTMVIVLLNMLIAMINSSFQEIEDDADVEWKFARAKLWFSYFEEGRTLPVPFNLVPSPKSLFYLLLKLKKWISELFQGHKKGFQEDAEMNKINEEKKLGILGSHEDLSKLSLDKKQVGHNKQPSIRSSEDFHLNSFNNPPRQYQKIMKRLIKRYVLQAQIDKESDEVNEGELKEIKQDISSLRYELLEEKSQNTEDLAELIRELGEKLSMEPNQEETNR
Assay: TRP Family FLIPR Assay, TRPC6
Format: cell-based
Settings: HEK293 cells
Procedure: The compound of Example 5 was tested for selectivity against a panel of Human TRP family ion channels in a TRP Family FLIPR Assay as described below. • 1. TRPC3 channels (human TRPC3 variant 1 gene, expressed in HEK293 cells). • 2. TRPC4 channels (human TRPC4 gene, expressed in HEK293 cells). • 3. TRPC5 channels (human TRPC5 gene, expressed in HEK293 cells). • 4. TRPC6 channels (human TRPC6 gene, expressed in HEK293 cells). • 5. TRPM2 channels (human TRPM2 gene, transiently expressed in HEK293 cells). • 6. TRPM3 channels (human TRPM3 gene, transiently expressed in HEK293 cells). • 7. TRPM4 channels (human TRPM4 gene, expressed in CHO cells). • 8. […]
Data acquisition was performed via the FLIPR Control software supplied with the FLIPR System (MDS-AT) and data was analyzed using Microsoft Excel (Microsoft Corp., Redmond, WA) or GraphPad Prism. […]
[formula] where Base is the response at low concentrations of test article, Max is the maximum response at high concentrations, xhalf the EC50, or IC50, the concentration of test article producing either half-maximal activation or inhibition, and rate is the Hill coefficient. […] No assumptions about the fit parameters was made; the fit parameters were determined by the algorithm.
The effect of each test article was evaluated at eight (8) concentrations: 0.003, 0.01, 0.03, 0.1, 0.3, 1, 3 and 10 μM, n≤4 wells/concentration). […]

CC(C)(O)c1cnc(N2C[C@@]3(CC[C@@H](F)[C@](C)(Cn4cnc5ccc(C#N)cc54)C3)OC2=O)cn1 (single isomer, unassigned) [Example 5]
EC50 (agonist mode, vs EMAX of Na-ATP 100 μM, read-out: EC50 hTRPC6): > 10 µM | IC50 (antagonist mode, activated with 10 μM Na-ATP, 0.003-10 μM, read-out: IC50 hTRPC6): > 10 µM
